From patent US8008487B2, “Substituted thieno[2,3-D]pyrimidines as fungicides” (priority 2004, dated 2011)
Where two headings read alike, the source gives them in different places.

Experiments:
Type in all cases: in vivo
Leptosphaeria nodorum = test: Glume Blotch of Wheat (LEPTNO), whole-plant fungicide test; conditions: Parastagonospora nodorum, read-out: LEPTNO percent control of disease; for pest or weed control at 200 ppm: foliar, 24 h, 200 ppm on foliage, one-day protectant test
Phytophthora infestans = test: whole plant or invertebrate; conditions: for pest or weed control at 200 ppm: foliar, read-out: PHYTIN percent control of disease, 200 ppm on foliage, tomato, one-day protectant test
Erysiphe cichoracaerum = test: Cucumber Powdery Mildew (ERYSCI), whole-plant fungicide test; conditions: 200 ppm on foliage, one-day protectant test; for pest or weed control at 200 ppm: Erysiphe, foliar, 24 h, read-out: ERYSCI percent control of disease
Septoria tritici = test: Speckled Leaf Blotch of Wheat (SEPTTR), whole-plant fungicide test; conditions: Zymoseptoria tritici, read-out: SEPTTR percent control of disease; for pest or weed control at 100 ppm: 100 ppm (footnote a); for pest or weed control at 75 ppm: 75 ppm (footnote d)
Colletotricum lagenarium = test: Cucumber Anthracnose (COLLLA), whole-plant fungicide test; conditions: one-day protectant test; for pest or weed control at 200 ppm: foliar
[1] = test system: Puccinia recondita tritici; test: Leaf Rust of Wheat (PUCCRT), whole-plant fungicide test; conditions: 200 ppm on foliage, one-day protectant test; for pest or weed control at 200 ppm: Puccinia recondita, foliar, 24 h, read-out: PUCCRT percent control of disease
Magnaporthe grisea = test: whole plant or invertebrate; conditions: for pest or weed control at 200 ppm: foliar, read-out: PYRIOR percent control of disease, 200 ppm on foliage, rice, one-day protectant test
Cochliobolus sativus = test: Spot Blotch of Wheat (COCHSA), whole-plant fungicide test; conditions: Bipolaris sorokiniana, foliar, 24 h, 200 ppm on foliage, one-day protectant test, read-out: COCHSA percent control of disease
Protocol: The activity of the compounds as effective fungicides was determined by applying the compounds to plants and observing control of fungal disease. The compounds were formulated at 200 ppm in 10 vol. percent acetone plus 90 vol. percent Triton X water (deionized water 99.99 wt. percent+0.01 wt. percent Triton X100), giving a “formulated test compound.” In a few cases, compounds were formulated at 100, 75 or 8.3 ppm rather than 200 ppm in 10 vol. percent acetone plus 90 vol. percent Triton X water (deionized water 99.99 wt. percent+0.01 wt. percent Triton X100), giving a ‘formulated test compound’. The compounds were tested for ability to control plant diseases in a 1-day protectant test (1DP) or a 2-day curative test (2DC). Formulated test compounds were applied to plants using a turn table sprayer fitted with two opposing air atomization nozzles which delivered approximately 1500 L/ha of spray volume. Plants were inoculated with spores of the fungus the next day (1DP), then incubated in an environment conducive to disease development. In a few cases, the compounds were tested for ability to control plant disease in a two-day curative test. Plants were inoculated with spores of the fungus two days prior to compound application, and incubated in an environment conducive to disease development both before and after compound application (2DC). For all types of tests, disease severity was evaluated 4 to 28 days later, depending on the speed of disease development.
Each pot contained 3-8 seedlings. These plants were sprayed until wet with the formulated test compound. On the following day, the leaves were inoculated with an aqueous spore suspension of Cochliobolus sativus and the plants were kept in high humidity for one to two days to permit spores to germinate and infect the leaf. The plants were then transferred to a greenhouse until disease developed on untreated control plants.
The following table presents the activity of typical compounds of the present invention when evaluated in these experiments. The effectiveness of the test compounds in controlling disease was determined by assessing the severity of disease on treated plants, then converting the severity to percent control based on the level of disease on untreated, inoculated plants.
TABLE 4: Activity of compounds as fungicides. Data are the level at which the given disease was controlled when the given compound was applied to the foliage of the plant at 200 ppm. In a few cases (noted in the table) the compound was applied to the plant at 100, 75 or 8.3 ppm. The plant was inoculated with the fungus one day after treatment. In a few cases (noted in the table) the plant was inoculated with the fungus two days before treatment.

[2] = Phytophthora infestans, in Solanum lycopersicum, 24 h
[3] = Cucumis sativus, 24 h, 200 ppm on foliage, read-out: COLLLA percent control of disease
[4] = Pyricularia oryzae, in Oryza sativa, 24 h

| Compound | pest or weed control at 200 ppm (Leptosphaeria nodorum) [%] | pest or weed control at 200 ppm (Phytophthora infestans; [2]) [%] | pest or weed control at 200 ppm (Erysiphe cichoracaerum) [%] | pest or weed control at 200 ppm (Colletotricum lagenarium; [3]) [%] | pest or weed control at 200 ppm [1] [%] | pest or weed control at 200 ppm (Magnaporthe grisea; [4]) [%] | pest or weed control at 200 ppm (Cochliobolus sativus) [%] | further results |
| --- | --- | --- | --- | --- | --- | --- | --- | --- |
| FC(F)(F)COc1ccc(CCNc2ncnc3scc(Cl)c23)cn1 [Compound 5a] | 80 to 100 | 80 to 100 | 80 to 100 | 50 to 79 | 80 to 100 | 80 to 100 |  | pest or weed control at 100 ppm (Septoria tritici; 24 h, one-day protectant test): 80 to 100% |
| CC(=O)COc1ccc(CCNc2ncnc3scc(Cl)c23)cc1 [Compound 6a] | 50 to 79 | 80 to 100 | 0 to 49 | 50 to 79 | 80 to 100 | 80 to 100 |  | pest or weed control at 75 ppm (Septoria tritici; 24 h, one-day protectant test): 0 to 49% |
| O=C(Oc1ccc(CCNc2ncnc3scc(Cl)c23)cc1)C1(F)C(F)(F)C(F)(F)C(F)(F)C(F)(F)C1(F)F [Compound 9a, 1,2,2,3,3,4,4,5,5,6,6-undecafluoroclohexanecarboxylic Acid 4-[2-(5-chlorothieno[2,3-d]pyrimidin-4-ylamino)ethyl]phenyl Ester] | 0 to 49 | 0 to 49 | 0 to 49 | 0 to 49 | 80 to 100 | 80 to 100 |  | pest or weed control at 75 ppm (Septoria tritici; 24 h, one-day protectant test): 80 to 100% |
| CC(C)(C)OC(=O)Nc1ccc(CCNc2ncnc3scc(Cl)c23)cc1 [Compound 10a, {4-[2-(5-chlorothieno[2,3-d]pyrimidin-4-ylamino)ethyl]phenyl}carbamic Acid t-butyl Ester] | 0 to 49 |  | 0 to 49 | 0 to 49 | 0 to 49 |  |  | pest or weed control at 75 ppm (Septoria tritici; 24 h, one-day protectant test): 80 to 100%; pest or weed control at 8.3 ppm (Magnaporthe grisea; Pyricularia oryzae, in Oryza sativa, 24 h, read-out: PYRIOR percent control of disease, 8.3 ppm (footnote c), rice, one-day protectant test): 80 to 100% |
| CC(Nc1ncnc2scc(Cl)c12)c1ccc(F)nc1 (stereo not shown) [Compound 40] | 50 to 79 |  |  |  | 80 to 100 |  | 50 to 79 |  |
| CCOc1csc2ncnc(N[C@@H](C)c3ccc(OC)cc3)c12 [Compound 43] | 0 to 49 | 0 to 49 |  | 0 to 49 | 50 to 79 | 50 to 79 | 0 to 49 |  |
| CCOc1csc2ncnc(NC(C)c3ccc(OC)nc3)c12 (stereo not shown) [Compound 46] | 50 to 79 | 0 to 49 | 50 to 79 | 0 to 49 | 80 to 100 | 80 to 100 | 0 to 49 |  |
| COc1ccc(C(C)Nc2ncnc3sc([N+](=O)[O-])cc23)cc1 (stereo not shown) [Compound 47, [1-(4-Methoxyphenyl)ethyl]-(6-nitrothieno[2,3-d]pyrimidin-4-yl)amine] | 50 to 79 | 0 to 49 | 0 to 49 | 0 to 49 | 80 to 100 | 80 to 100 | 0 to 49 |  |
| COc1ccc(C(C)Nc2ncnc3sc(Br)cc23)cc1 (stereo not shown) [Compound 48, (6-Bromothieno[2,3-d]pyrimidin-4-yl)-[1-(4-methoxyphenyl)ethyl]amine] | 0 to 49 | 0 to 49 | 0 to 49 | 0 to 49 | 0 to 49 | 0 to 49 | 80 to 100 |  |
| COc1ccc(C(C)Nc2ncnc3scc(C#N)c23)cc1 (stereo not shown) [Compound 49, 5-Cyano-N-[1-(4-methoxyphenyl)ethyl]thieno[2,3-d]pyrimidin-4-amine] | 0 to 49 | 0 to 49 |  | 0 to 49 | 80 to 100 | 80 to 100 | 50 to 79 |  |
| CCOC(=O)c1csc2ncnc(NC(C)c3ccc(OC)cc3)c12 (stereo not shown) [Compound 50, 5-Carboethoxy-N-[1-(4-methoxyphenyl)ethyl]thieno[2,3-d]pyrimidin-4-amine] | 0 to 49 | 0 to 49 |  | 0 to 49 | 0 to 49 | 0 to 49 | 50 to 79 |  |
| OCC(Nc1ncnc2scc(Cl)c12)c1ccccc1 (stereo not shown) [Compound 69] |  |  |  |  |  |  |  | pest or weed control at 100 ppm (Leptosphaeria nodorum; 48 h, 100 ppm (footnote a), two-day curative test (footnote b)): 50 to 79%; PHYTIN percent control of disease (Phytophthora infestans; 200 ppm on foliage, tomato, one-day protectant test): * (* is 0-49 percent control of disease); ERYSCI percent control of disease (Erysiphe cichoracaerum): * (* is 0-49 percent control of disease); pest or weed control at 100 ppm (Septoria tritici; 48 h, two-day curative test (footnote b)): 50 to 79%; COLLLA percent control of disease (Colletotricum lagenarium; 200 ppm on foliage): * (* is 0-49 percent control of disease); PUCCRT percent control of disease [1]: * (* is 0-49 percent control of disease); PYRIOR percent control of disease (Magnaporthe grisea; 200 ppm on foliage, rice, one-day protectant test): * (* is 0-49 percent control of disease) |
| CC(Nc1ncnc2scc(Cl)c12)C1CC1COCC(F)(F)F (stereo not shown) [Compound 87] | 0 to 49 | 0 to 49 | 80 to 100 | 0 to 49 | 80 to 100 | 80 to 100 |  |  |
| COc1ccc(C(C)Nc2ncnc3scc(SC)c23)cc1 (stereo not shown) [Compound 88, 5-Methylthio-N-[1-(4-methoxyphenyl)ethyl]thieno[2,3-d]pyrimidin-4-amine] | 0 to 49 | 0 to 49 | 0 to 49 | 0 to 49 | 80 to 100 | 80 to 100 |  |  |
| COc1ccc(C(C)Nc2ncnc3scc(S(C)(=O)=O)c23)cc1 (stereo not shown) [Compound 89, 5-Methanesulfonyl-N-[1-(4-methoxyphenyl)ethyl]thieno[2,3-d]pyrimidin-4-amine] | 0 to 49 | 0 to 49 | 0 to 49 | 0 to 49 | 0 to 49 | 50 to 79 |  |  |
| CC(Nc1ncnc2scc(Cl)c12)c1cnc(OCC(F)(F)F)s1 (stereo not shown) [Compound 90] | 50 to 79 | 0 to 49 | 80 to 100 | 0 to 49 | 80 to 100 | 80 to 100 |  |  |
| CC(Nc1ncnc2scc(Cl)c12)c1ccc(C(C)(C)C)cc1 (stereo not shown) [Compound 91] | 80 to 100 |  | 80 to 100 |  | 80 to 100 | 80 to 100 |  | pest or weed control at 100 ppm (Phytophthora infestans; Phytophthora infestans, in Solanum lycopersicum, 24 h, read-out: PHYTIN percent control of disease, 100 ppm (footnote a), tomato, one-day protectant test): 50 to 79%; pest or weed control at 100 ppm (Colletotricum lagenarium; Cucumis sativus, 24 h, 100 ppm (footnote a), read-out: COLLLA percent control of disease): 50 to 79% |
| Clc1csc2ncnc(N3CCOCC3c3ccccc3)c12 (stereo not shown) [Compound 92] | 0 to 49 | 0 to 49 | 0 to 49 | 0 to 49 | 0 to 49 | 80 to 100 |  |  |
| Clc1csc2ncnc(N3CCCCC3c3ccccc3)c12 (stereo not shown) [Compound 93] | 0 to 49 | 0 to 49 | 0 to 49 | 0 to 49 | 0 to 49 | 80 to 100 |  |  |
